Measured values published in patent US5603917A, “Methods for the in vivo measurement of the concentration of NMR-detectable xenobiotic compounds” (Bracco International B. V., priority 1994, dated 1997).
“And” between values parts separate entries of the source, which are not always exact repeats. Equal entries are not always repeated.

Experiments:
[1] = In vivo proton T1 measurement at rat tail, elimination of ProHance® (kidney status); details: intravenous 0.5 mmol/kg ProHance®, 20 MHz, 0.5 Tesla, 40° C.
Description: The measurement site was the tail of the subject rat, which was hung into the sample tube of a Brucker/IBM PC 20 Spin Analyzer (commerically available).
Rat proton T1 data were recorded both before and after intravenous injection of 0.5 mmol/kg ProHance®. The T1 measurements were made by the inversion-recovery method (Fukushima et al., Experimental Pulse NMR, a Nuts and Bolts Approach (Addison-Wesley 1981)) at 20 MHz and 0.5 Tesla at 40° C. with the IBM PC 20 relaxometer by sampling the section of the rat tail about 10 mm from the tip. The proton T1 change upon the injection of ProHance® was followed for 2 hours at 5 minute intervals after injection. The logarithms of the differences in the T1 relaxation rate (reciprocal of T1 relaxation time) before and after injection, log(1/T1 -1/T10), were plotted as a function of time. The elimination halftimes (T1/2) were calculated from the slopes of the log plots. The proton T1 data of a nephrectomized rat were also collected and used for comparison with the behaviour of normal rats (see FIG. 1).
(§1) Runs involving simultaneous intravenous injection administrations of 0.5 mmol/kg ProHance®, ^153 Gd-labeled ProHance® and ^99m Tc(DTPA) (Techneplex™, technetium-diethylenetriamine pentaacetic acid), the latter to determine glomerular filtration rate by in vitro methods as a validation experiment, were also carried out. In these runs, rat blood samples and tail T1 data were acquired at the same time intervals from the same rat, and with multiple subjects (n=3). The blood samples were assayed in vitro to determine the amounts of ^153 Gd-labeled ProHance® and ^99m Tc(DTPA) in the blood, and the percentage changes in the blood pool concentrations of ^153 Gd-labeled ProHance® and ^99m Tc(DTPA) were plotted as a function of time to obtain the T1/2 values. The T1/2 data were also calculated from the slopes of the log(1/T1 -1/T10) versus time plots. These two sets of rat T1/2 data are shown in Table 1, and are also compared in FIG. 2.

[2] = Blood sampling with in vitro assay of ^153 Gd-labeled ProHance® and ^99m Tc(DTPA), elimination from rat blood pool (validation experiment); format: in vivo; details: rats #5 to #7; blood samples; simultaneous intravenous injection; same values obtained for ^153 Gd and ^99m Tc
Description: as §1

[3] = normal rats #1 to #7, one value per rat, 2 hours at 5 minute intervals

| Compound | Elimination Halftime T1/2 From Slope ([1]; nephrectomized rat) | Slope of Log (1/T1 - 1/T10) vs Time Plot ([1]; nephrectomized rat) | Elimination Halftime T1/2 From Slope [1, 3] | Slope of Log (1/T1 - 1/T10) vs Time Plot [1, 3] | Elimination Halftime T1/2 From ^153 Gd and ^99m Tc [2] [min] |
| --- | --- | --- | --- | --- | --- |
| CC(O)CN1CCN(CC(=O)[O-])CCN(CC(=O)[O-])CCN(CC(=O)[O-])CC1.[Gd+3] (stereo not drawn) [ProHance®, Gd-hydroxypropyl tetraazacylododecanetriacetic acid] | 2,000 ± 4,000 min. | 0.0003 ± 0.0006 | 35 ± 5 min and 32 ± 2 min and 25 ± 4 min and 30 ± 3 min and 36 ± 2 min and 20 ± 2 min | 0.0093 ± 0.0006 and 0.012 ± 0.0020 and 0.010 ± 0.0012 and 0.0083 ± 0.0005 and 0.015 ± 0.0016 and 0.0087 ± 0.0012 |  |
| CC(O)CN1CCN(CC(=O)[O-])CCN(CC(=O)[O-])CCN(CC(=O)[O-])CC1.[Gd+3] (stereo not drawn) [^153 Gd-labeled ProHance®] |  |  |  |  | 31 |
| technetium-diethylenetriamine pentaacetic acid [^99m Tc(DTPA)] |  |  |  |  | 31 |
